Test results from patent EP0738149B1 (priority 1994, dated 1995).
Counter-ions that a name gives are not always drawn. Like-named read-outs stand apart in the source and are kept apart here.

How the values were obtained:
mice [1] = assay: Maximal electroshock (MES) model in mice, i.p.;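 further: Electroshock-induced convulsion model serving to demonstrate antiepileptic efficacy against generalized and partial seizures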; format: in vivo; conditions: Mus musculus, ip, Table 15
in vivo [2] = conditions: mouse, in vivo, ip
Procedure: (§1) Neurotoxicity of the claimed agents was also assessed in mice (i.p. administration) by the rotorod ataxia test and/or in rats (p.o. administration) by positional sense test and gait stance test. […] The term quantitating the neurotoxicity is the medial neurological toxic dose (TD50), was determined in the above tests.

mice [3] = assay: in vivo; conditions: mouse, in vivo, ip
Procedure: as §1

rats [4] = assay: Electrically kindled rat model of epilepsy, p.o.; format: in vivo; conditions: po, read-out: ED50 (prevented seizures)
Excerpt: The rat electrical kindling model of epilepsy has been known to show efficacy of antiepileptic agents against complex partial seizures that evolve into generalized motor seizures. In these tests, rats were electrically stimulated via corneal electrodes twice daily for approximately 5 days and then once daily for an additional 10 days. Once the seizure criteria, as described by R.J. Racine, et al., Electroenceph. Clin. Neurophysiol. 32: 281-294 (1972), were met, the test substance was administered p.o. to rats, and the rat electrically stimulated, and observed for the presence or absence of a seizure.

mice [5] = conditions: Mus musculus, ip, read-out: MICE scMet ED50, mice, i.p.; Table 16
rats [6] = assay: Maximal electroshock (MES) model in rats, p.o.;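 further: rat MES model gauging antiepileptic efficacy versus generalized and partial seizures after oral dosing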; format: in vivo; conditions: rats, p.o., Table 15
in vivo [7] = conditions: rat, in vivo, po
Procedure: as §1

rats [8] = assay: Neurotoxicity in rats (positional sense test and gait stance test), p.o.; conditions: rats, p.o.; Table 16
Procedure: as §1

[9] = test system: mechanically dissociated neonatal rat cerebellum; assay: Reversal of NMDA induced cell death in cultures of neonatal rat cerebellum; format: cell-based; conditions: for SURVIVING CELL IN CULTURE: relative to control (100%); for PERCENT PROTECTION: Cell Survival minus the NMDA effect; for EFFECTIVE PROTECTION: X x 100/70
Method in brief: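 Cerebellar cells from 6–7-day rat pups on poly-L-lysine at 200/mm^2, grown 3 days (37°C, 5% CO2), then compound with NMDA challenge (1mM, 3 hours); spermine (0.01 micromoles) plus NMDA as positive control, duplicates. Survival by phase contrast and trypan blue after 24 hours; effective protection = percent protection ×100/70.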

[10] = test system: mechanically dissociated neonatal rat cerebellum; assay: Enhancement of cell survival in cultures of neonatal rat cerebellum (no NMDA); format: cell-based; conditions: 24 hours after addition, percentage of the number of control cells on the fourth day
Procedure: The cerebellum was aseptically dissociated from 6 or 7-day old rat pups and placed in a 15ml sterile plastic conical tube containing 3ml of Dulbecco's modified Eagle's medium (DMEM) with a high glucose concentration ([…]) and 2mM (v/v) L-glutamine and an antibiotic antimitotic mixture. The cerebella were then dissociated after 20-25 passages through a sterile 13 gauge, 10cm long stainless steel needle attached to a 5ml syringe with an inserted 45 micrometer pore nylon sieve. The dissociated cells were centrifuged at 200g for 5 minutes. […] Cell viability was determined by the tryptan blue exclusion test.
Cells were plated at a density of 200/mm^2 on poly-L-lysine coated surfaces. Poly-L-lysine coated glass coverslips were prepared at least one hour in advance of plating by immersing sterile coverslips in sterile distilled water solution containing 15 microgram/ml poly-L-lysine, and washing in sterile water just prior to use. […] After three days in culture, the media was replaced with media containing the desired test compound. Each test compound was tested in duplicate. Toxic-dose response was determined for each compound.
Cell cultures were grown as described above but in the absence of NMDA and after 3 days a dose of test compound was added. Cell survival was monitored as described above.

Male mongolian gerbils = assay: Global brain ischemia in gerbils (CA1 pyramidal neurons); format: in vivo; conditions: 3 injections, fraction of hippocampi protected from ischemia, 14 days post-ischemia
Procedure: Each artery was clamped for 5 minutes with aneurysm clips to produce global brain ischemia. The anesthesia was discontinued upon clamping. After 5 minutes the clamps were removed and the wound closed with skin clips.
For treatment, the test compound or vehicle were injected intra-peritoneally (ip) in a volume of 50 microliters of solvent per 10g body weight. The first injection was given two minutes after clamp removal, and thereafter daily for the next 2 post-operative days (total of 3 injections).
Seven groups each of 4-8 animals were compared: • I. Control; (sham- or unoperated and saline treated), • II. Vehicle treated, unoperated (when solvent is other than saline), • III. Ischemia - untreated or saline treated), • IV. Ischemia - vehicle treated (when solvent is other than saline), • V. Ischemia - Test compound treated, one sub-group per concentration tested, • VI. Ischemia and pentobarbital (40 mg/kg) as positive control).
Analysis of neuronal damage was performed 14 days post-ischemia by counting pyramidal neurons throughout the CA1 layer of the anterior hippocampus in […] thick (paraffin) coronal brain sections stained with hematoxylin and erosin.
Percent Protection values represent the fraction of hippocampi protected from ischemia in a group of animals treated with the stated dose of compound.

rats [11] = conditions: Rattus norvegicus, po, read-out: RATS scMet ED50
[12] = 0.005 µM + NMDA 1mM for 3 hours
[13] = 0.010 µM + NMDA 1mM for 3 hours

Structure (SMILES) | ED50 (mice [1]) | TD50 (in vivo [2]; MICE TD50) | MICE TD50 (mice [3]) | ED50 (rats [4]) | ED50 (mice [5]) | TD50 (in vivo [7]) | RATS TD50 (rats [8]) | SURVIVING CELL IN CULTURE [9, 12] | PERCENT PROTECTION ([9]; 0.005 µM + NMDA) | EFFECTIVE PROTECTION ([9]; 0.005 µM + NMDA) | SURVIVING CELL IN CULTURE [9, 13] | PERCENT PROTECTION ([9]; 0.010 µM + NMDA) | EFFECTIVE PROTECTION ([9]; 0.010 µM + NMDA) | % ENHANCED SURVIVAL ([10]; 0.005 µM) | PERCENT PROTECTION (Male mongolian gerbils; 0.1 mg/kg ip) | PERCENT PROTECTION (Male mongolian gerbils; 1.0 mg/kg ip) | PERCENT PROTECTION (Male mongolian gerbils; 10.0 mg/kg ip) | ED50 (rats [11]) | further results
CC(=O)NC1CCc2ccccc21 (racemic) [Example 17, (rac)-N-Acetyl-1-aminoindan] | 33 mg/kg | 90 mg/kg | 90 mg/kg | < 75 mg/kg | 71.5 mg/kg |  |  |  |  |  |  |  |  |  |  |  |  |  | 
NC(=O)CN[C@H]1CCc2ccccc21 [Example 2, (S)-N-(2-Acetamido)-1-aminoindan.HCl] | 39 mg/kg |  |  |  | > 150 mg/kg | > 500 mg/kg | >500 mg/kg | 56% | 26% | 37% | 51% | 21% | 30% | 140% | 0% | 50.0% | 37.5% | > 250 mg/kg | RATS MES 50 (rats [6]): 21 mg/kg; TD50 (in vivo [2]; MICE TD50, mice, Table 15): 137 mg/kg; TD50 (in vivo [2]; MICE TD50, mice, Table 16): 137 mg/kg; SURVIVING CELL IN CULTURE ([9]; 0.100 µM + NMDA 1mM for 3 hours): 33%; PERCENT PROTECTION ([9]; 0.100 µM + NMDA): 3%; EFFECTIVE PROTECTION ([9]; 0.100 µM + NMDA): 4%; % ENHANCED SURVIVAL ([10]; 0.01 µM): 125%
CC(=O)N[C@H]1CCc2ccccc21 [Example 19, (S)-N-Acetyl-1-aminoindan] | 40 mg/kg | 61 mg/kg | 61 mg/kg | > 50 mg/kg | 86 mg/kg | > 500 mg/kg | >500 mg/kg | 30% | 0% | 0% | 42% | 12% | 17% | 120% | 25.0% | 0% | 37.5% | > 250 mg/kg | ED50 (rats [6]; Rattus norvegicus, po, read-out: RATS MES 50): 24 mg/kg; SURVIVING CELL IN CULTURE ([9]; 0.001 µM + NMDA 1mM for 3 hours): 80%; PERCENT PROTECTION ([9]; 0.001 µM + NMDA): 50%; EFFECTIVE PROTECTION ([9]; 0.001 µM + NMDA): 71%; SURVIVING CELL IN CULTURE ([9]; 1.000 µM + NMDA 1mM for 3 hours): 15%; PERCENT PROTECTION ([9]; 1.000 µM + NMDA): -15%
